# pIC50: −log10 of the molar value. Where two headings read alike, the source gives them in different places. Marks after values point to notes of the source that are not given here. Where a SMILES comes first, the peptide text is derived from it.
# How the values were obtained:
# Format in all cases: binding
# AbGD1b (GD1b/AbGD1b) = details: lot # D710-6; for Inhibition percent at IC50AbGM1-1: GD1b/AbGD1b: peptide at its IC50 AbGM1-1
# AbGM2 (GM2/AbGM2) = details: lot # D710-2; for Inhibition percent at IC50AbGM1-1: GM2/AbGM2: peptide at its IC50 AbGM1-1
# AbGM4 (GM4/AbGM4) = details: lot # GMR6; for Inhibition percent at IC50AbGM1-1: GM4/AbGM4: peptide at its IC50 AbGM1-1
# [1] = biological target: cholera toxin B subunit (CTB); ligand LOSGM1 (Vibrio cholerae serotype O1, UniProt P01556)
# [2] = biological target: cholera toxin B subunit (CTB); ligand GD1b (Vibrio cholerae serotype O1, UniProt P01556)
# [3] = biological target: cholera toxin B subunit (CTB); ligand GM1 (Vibrio cholerae serotype O1, UniProt P01556)
# AbSGPG (SGPG/AbSGPG) = details: lot # D710-5; for Inhibition percent at IC50AbGM1-1: SGPG/AbSGPG: peptide at its IC50 AbGM1-1
# [4] = biological target: cholera toxin B subunit (CTB); ligand Lipid AP (Vibrio cholerae serotype O1, UniProt P01556)
# AbGD3 (GD3/AbGD3) = details: peptide at its IC50 AbGM1-1; lot # R24
# AbGD1a (GD1a/AbGD1a) = details: lot # 109H; for Inhibition percent at IC50AbGM1-1: GD1a/AbGD1a: peptide at its IC50 AbGM1-1
# [5] = biological target: cholera toxin B subunit (CTB); ligand fucosyl-GM1 (F-GM1) (Vibrio cholerae serotype O1, UniProt P01556)
# AbF-GM1 (F-GM1/AbF-GM1) = details: lot # G351; for Inhibition percent at IC50AbGM1-1: F-GM1/AbF-GM1: peptide at its IC50 AbGM1-1
# [6] = test system: rabbit anti-GM1 antibodies (AbGM1); details: for pIC50: AbGM1-1 lot # 431A; for Inhibition percent at IC50AbGM1-1: GM1/AbGM1-1 / Inhibition percent at IC50 AbGM1-1: AbGM1-3 / Inhibition percent at IC50 AbGM1-1: AbeGM1-4 / Inhibition percent at IC50 AbGM1-1: AbGM1-5 / Inhibition percent at IC50 AbGM1-1: AbGM1-1 / Inhibition percent at IC50 AbGM1-1: AbGM1-2: peptide at its IC50 AbGM1-1; for Inhibition percent at IC50 AbGM1-1: AbGM1-3: antibody lot # 101J; for Inhibition percent at IC50 AbGM1-1: AbeGM1-4: antibody lot # 104H; for Inhibition percent at IC50 AbGM1-1: AbGM1-1: antibody lot # 431A, means of 4 values
# [7] = antibody lot # 105T, dilution 1:500
# [8] = antibody lot # 431B, dilution 1:500
# [9] = treatment with 500 pmol/mL of PGM1-2
# cholera toxin B subunit (CTB); ligand fucosyl-GM1 (F-GM1), sequence (P01556 22-124 limits assumed): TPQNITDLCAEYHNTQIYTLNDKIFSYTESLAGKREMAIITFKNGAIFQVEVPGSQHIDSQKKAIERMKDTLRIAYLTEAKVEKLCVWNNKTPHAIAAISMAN
# cholera toxin B subunit (CTB); ligand Lipid AP, sequence (P01556 22-124 limits assumed): as above
# cholera toxin B subunit (CTB); ligand LOSGM1, sequence (P01556 22-124 limits assumed): as above
# cholera toxin B subunit (CTB); ligand GD1b, sequence (P01556 22-124 limits assumed): as above
# cholera toxin B subunit (CTB); ligand GM1, sequence (P01556 22-124 limits assumed): as above
smiles,measurement,setting,value
"CC(C)C[C@H](NC(=O)[C@H](CC(N)=O)NC(=O)[C@@H]1CCCN1C(=O)[C@H](Cc1ccccc1)NC(=O)[C@H](Cc1c[nH]c2ccccc12)NC(=O)[C@@H](NC(=O)[C@H](CCCCN)NC(=O)[C@H](Cc1c[nH]c2ccccc12)NC(=O)[C@H](CO)NC(=O)[C@@H](N)C(C)C)[C@@H](C)O)C(=O)N[C@@H](C)C(=O)N[C@H](C(=O)O)C(C)C [PGM1-1, VSWKTWFPNLAV] (H-VSWKTWFPNLAV-OH; N-terminus and C-terminus assumed)",Inhibition percent at IC50AbGM1-1: GD1b/AbGD1b,AbGD1b (GD1b/AbGD1b),32.1%
same,Inhibition percent at IC50AbGM1-1: GM2/AbGM2,AbGM2 (GM2/AbGM2),11.2%
same,Inhibition percent at IC50AbGM1-1: GM4/AbGM4,AbGM4 (GM4/AbGM4),0%
same,Inhibition percent at IC50 GM1: LOSGM1,[1],50.8%
same,Inhibition percent at IC50 GM1: GD1b,[2],39.9%
same,IC50 GM1,[3],38.0 nM
same,Inhibition percent at IC50AbGM1-1: SGPG/AbSGPG,AbSGPG (SGPG/AbSGPG),0%
same,Inhibition percent at IC50 GM1: Lipid AP,[4],0%
same,Inhibition percent at IC50AbGM1-1: GD3/AbGD3,AbGD3 (GD3/AbGD3),0%
same,Inhibition percent at IC50AbGM1-1: GD1a/AbGD1a,AbGD1a (GD1a/AbGD1a),0%
same,Inhibition percent at IC50 GM1: F-GM1,[5],45.8%
same,Inhibition percent at IC50AbGM1-1: F-GM1/AbF-GM1,AbF-GM1 (F-GM1/AbF-GM1),42.1%
same,pIC50,"[6]; Table 4, dilution 1:500",6.56
same,pIC50,[6]; Table 5,6.56
same,Inhibition percent at IC50AbGM1-1: GM1/AbGM1-1,"[6]; Table 5, lot # 431A",50^b percent
same,Inhibition percent at IC50 AbGM1-1: AbGM1-3,[6]; dilution 1:500,0%
same,Inhibition percent at IC50 AbGM1-1: AbeGM1-4,[6]; dilution 1:500,72.1%
same,Inhibition percent at IC50 AbGM1-1: AbGM1-5,[6]; [7],44.6%
same,Inhibition percent at IC50 AbGM1-1: AbGM1-1,[6]; dilution 1:500,50^a percent
same,Inhibition percent at IC50 AbGM1-1: AbGM1-2,[6]; [8],27.1%
"CSCC[C@H](NC(=O)[C@H](CO)NC(=O)[C@@H]1CCCN1C(=O)[C@H](Cc1ccccc1)NC(=O)[C@H](Cc1c[nH]c2ccccc12)NC(=O)[C@H](CCCCN)NC(=O)[C@H](Cc1c[nH]cn1)NC(=O)[C@H](Cc1ccccc1)NC(=O)[C@@H]1CCCN1C(=O)[C@H](CO)NC(=O)[C@@H](N)Cc1ccc(O)cc1)C(=O)N[C@@H](Cc1c[nH]cn1)C(=O)O [PGM1-2, YSPFHKWFPSMH] (H-YSPFHKWFPSMH-OH; N-terminus and C-terminus assumed)",Inhibition percent: GD1b/AbGD1b,AbGD1b (GD1b/AbGD1b); [9],23.6^b percent
same,Inhibition percent: GM2/AbGM2,AbGM2 (GM2/AbGM2); [9],0^b percent
same,Inhibition percent: GM4/AbGM4,AbGM4 (GM4/AbGM4); [9],0^b percent
same,Inhibition percent at IC50 GM1: LOSGM1,[1],47.9%
same,Inhibition percent at IC50 GM1: GD1b,[2],21.9%
same,IC50 GM1,[3],46.1 nM
same,Inhibition percent at IC50 GM1: GM1,[3],50%
same,Inhibition percent: SGPG/AbSGPG,AbSGPG (SGPG/AbSGPG); [9],0^b percent
same,Inhibition percent at IC50 GM1: Lipid AP,[4],0%
same,Inhibition percent: GD1a/AbGD1a,AbGD1a (GD1a/AbGD1a); [9],0^b percent
same,Inhibition percent at IC50 GM1: F-GM1,[5],52.1%
same,Inhibition percent: F-GM1/AbF-GM1,AbF-GM1 (F-GM1/AbF-GM1); [9],0^b percent
same,Inhibition percent: GM1/AbGM1-1,"[6]; Table 5, treatment with 500 pmol/mL of PGM1-2, lot # 431A",0^b percent
same,Inhibition percent at IC50 AbGM1-1: AbGM1-3,[6]; dilution 1:500,65.7^a percent
same,Inhibition percent at IC50 AbGM1-1: AbeGM1-4,[6]; dilution 1:500,15.1^a percent
same,Inhibition percent at IC50 AbGM1-1: AbGM1-1,[6]; dilution 1:500,0^a percent
same,Inhibition percent: AbGM1-5,"[6]; treatment with 500 pmol/mL of PGM1-2, antibody lot # 105T, dilution 1:500",0^b percent
same,Inhibition percent: AbGM1-2,"[6]; treatment with 500 pmol/mL of PGM1-2, antibody lot # 431B, dilution 1:500",32.1^b percent
"CC[C@H](C)[C@H](N)C(=O)N1CCC[C@H]1C(=O)N[C@@H](CCC(N)=O)C(=O)N[C@H](C(=O)N[C@@H](Cc1c[nH]c2ccccc12)C(=O)N[C@@H](CCCNC(=N)N)C(=O)N[C@@H](CC(=O)O)C(=O)N[C@@H](Cc1c[nH]c2ccccc12)C(=O)N[C@@H](Cc1ccccc1)C(=O)N[C@@H](CCCCN)C(=O)N[C@@H](CC(C)C)C(=O)N1CCC[C@H]1C(=O)O)C(C)C [PGM1-3, IPQVWRDWFKLP] (H-IPQVWRDWFKLP-OH)",Inhibition percent at IC50AbGM1-1: GD1b/AbGD1b,AbGD1b (GD1b/AbGD1b),0%
same,Inhibition percent at IC50AbGM1-1: GM2/AbGM2,AbGM2 (GM2/AbGM2),0%
same,Inhibition percent at IC50AbGM1-1: GM4/AbGM4,AbGM4 (GM4/AbGM4),0%
same,Inhibition percent at IC50 GM1: LOSGM1,[1],52.1%
same,Inhibition percent at IC50 GM1: GD1b,[2],37.9%
same,IC50 GM1,[3],9.6 nM
same,Inhibition percent at IC50 GM1: GM1,[3],50%
same,Inhibition percent at IC50AbGM1-1: SGPG/AbSGPG,AbSGPG (SGPG/AbSGPG),0%
same,Inhibition percent at IC50 GM1: Lipid AP,[4],0%
same,Inhibition percent at IC50AbGM1-1: GD3/AbGD3,AbGD3 (GD3/AbGD3),0%
same,Inhibition percent at IC50AbGM1-1: GD1a/AbGD1a,AbGD1a (GD1a/AbGD1a),0%
same,Inhibition percent at IC50 GM1: F-GM1,[5],43.9%
same,Inhibition percent at IC50AbGM1-1: F-GM1/AbF-GM1,AbF-GM1 (F-GM1/AbF-GM1),0%
same,pIC50,"[6]; Table 4, dilution 1:500",7.12
same,pIC50,[6]; Table 5,7.12
same,Inhibition percent at IC50AbGM1-1: GM1/AbGM1-1,"[6]; Table 5, lot # 431A",50%
same,Inhibition percent at IC50 AbGM1-1: AbGM1-3,[6]; dilution 1:500,42.5%
same,Inhibition percent at IC50 AbGM1-1: AbeGM1-4,[6]; dilution 1:500,30.3%
same,Inhibition percent at IC50 AbGM1-1: AbGM1-5,[6]; [7],59.1%
same,Inhibition percent at IC50 AbGM1-1: AbGM1-1,[6]; dilution 1:500,50%
same,Inhibition percent at IC50 AbGM1-1: AbGM1-2,[6]; [8],62.1%

# — patent publication US8877161B2 (priority 2011, dated 2014)
